Assay results taken from patent US10118947B2, “Modulation of structured polypeptide specificity” (BICYCLE THERAPEUTICS LIMITED, priority 2013, dated 2018).
Read-outs that look alike come from different tables or passages of the source. One block for each compound: values may come before it. Numbered stars: 1 amine (or outer) side, 2 acyl side, 3 side chain; on linkers, the order of the positions; unused ones are H or OH. Bridge positions count the residues as written; N and C are the ends. Square brackets hold non-standard residues; d marks the D form. Peptide text beside a SMILES is read from it. Gly(N-CH2CH2-imidazol-4-yl) = O=C(O)CNCCc1c[nH]cn1; 1Nal = N[C@@H](Cc1cccc2ccccc12)C(=O)O; 2Nal = N[C@@H](Cc1ccc2ccccc2c1)C(=O)O; TBMB = c1c(C[*:1])cc(C[*:3])cc1C[*:2]; His(π-Me) = Cn1cncc1C[C@H](N)C(=O)O; 2Thi = N[C@@H](Cc1cccs1)C(=O)O; β3hQ = NC(=O)CC[C@H](N)CC(=O)O; Phg = N[C@H](C(=O)O)c1ccccc1; Tle = CC(C)(C)[C@H](N)C(=O)O

Key:
[1] = Plasma stability profiling Method #1 (MALDI-TOF, 35% plasma), rat plasma; type: in vitro ADME; conditions: Table 12; method #1
Experimental: A rapid plasma stability profiling assay was developed that employed mass spectrometric detection (MALDI-TOF, Voyager DE, Applied Biosystems) of the parent mass, until the time when the parent peptide mass was no longer observable. Specifically, 200 uM of peptide was incubated in the presence of 35% rat or human plasma (Sera labs, using citrate as anticoagulant) at 37 deg C., which was supplemented with 1×PBS (derived from a 10×PBS Stock, Sigma). At various time points (i.e. t=0, 3, 24 hrs, henceafter daily up to 10 days), 2 uL of sample was added to 18 uL of 30 mM ammonium bicarbonate in a 1:1 mixture of acetonitrile:H2O. Samples were frozen at −80 deg C. until the time of analysis. For mass spectrometric analysis that determines the approximate detection window of the peptide, the acetonitrile:H2O-diluted sample of a given time point was spotted directly (0.7 uL) onto the MALDI plate. Matrix (alpha-cyanocinnamic acid, Sigma, prepared as a saturated solution in 1:1 acetonitrile:water containing 0.1% trifluoroacetic acid) was layered over the sample (1 uL). At a similar laser intensity setting on the MALDI TOF, the time could then be determined until parent peptide was no longer detectable. It should be noted that this is a qualitative assay serves to detect relative changes in plasma stability.

human plasma Kallikrein = biological target: T1, human plasma Kallikrein (Homo sapiens, UniProt P03952); test: Functional enzyme inhibition assay with fluorogenic substrate Z-PheArg-AMC, human plasma Kallikrein; type: biochemical
T1 construct: purchased Stratech, UK
T1 sequence (P03952 20-638): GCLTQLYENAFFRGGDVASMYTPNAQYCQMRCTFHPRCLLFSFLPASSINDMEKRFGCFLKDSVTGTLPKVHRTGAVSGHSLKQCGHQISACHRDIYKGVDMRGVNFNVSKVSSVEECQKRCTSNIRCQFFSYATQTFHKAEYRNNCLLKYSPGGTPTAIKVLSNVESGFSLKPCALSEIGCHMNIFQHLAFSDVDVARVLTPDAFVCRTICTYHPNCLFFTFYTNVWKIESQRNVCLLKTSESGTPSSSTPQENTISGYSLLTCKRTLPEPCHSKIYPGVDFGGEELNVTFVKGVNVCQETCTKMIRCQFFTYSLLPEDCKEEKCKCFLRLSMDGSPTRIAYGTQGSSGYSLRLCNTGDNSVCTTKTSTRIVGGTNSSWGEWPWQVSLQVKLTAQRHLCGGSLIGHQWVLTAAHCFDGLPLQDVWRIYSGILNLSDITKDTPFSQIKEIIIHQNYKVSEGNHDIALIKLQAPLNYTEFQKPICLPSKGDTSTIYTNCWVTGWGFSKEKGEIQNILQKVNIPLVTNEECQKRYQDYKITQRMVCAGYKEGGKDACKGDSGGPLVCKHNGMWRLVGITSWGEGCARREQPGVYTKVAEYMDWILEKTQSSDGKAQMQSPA
Experimental: Functional enzyme assays were conducted in 10 mM Tris HCl, 150 mM NaCl, 10 mM MgCl2, 1 mM CaCl2) and 1 mg/mL BSA (all Sigma UK) pH7.4 at 25° C. in solid black 96 well plates. Briefly 26.5 pM human plasma Kallikrein (purchased from Stratech, UK) or 500 pM rat plasma Kallikrein (expressed and purified in house) were incubated in the absence or presence of increasing concentrations of test peptide for 15 minutes before addition of the fluorogenic substrate Z-PheArg-AMC (Enzo Lifesciences UK) to a final assay concentration of 100 μM in 4% DMSO. Release of AMC was measured using a Pherastar FS (BMG Labtech), excitation 360 nm, emission 460 nm. The rate of the linear phase of the reaction, typically 5 to 45 minutes, was calculated in MARS data analysis software (BMG labtech). The rate was then used to calculate the IC50 and Ki in Prism (GraphPad). A four parameter inhibition non-linear regression equation was used to calculate the IC50.
Peptides were dissolved as the TFA-salts in their powder form, and stock solutions were usually prepared in water. All solutions were centrifuged and filtered ([…] syringe filters) prior absorption measurement at 280 nm. […] For peptides containing non-natural amino acids with suspected chromophoric properties (i.e. NorHar, 4PhenylPro, 3Pal, 4Pal, Tic, 4GuanPhe, 4,4-BPAI, 3,3-DPA, 1NAI, 2NAI, 4BenzylPro, Ind) concentrations were determined by weighing the powder and dissolving the peptide in a defined quantity of water.

[2] = Table 24b, residue 7 modifications, read-out: Ki
[3] = Table 24b, ratio of Ki to wild type
[4] = Table 24a, residue 6 modification in the context of Ac-(06-34-18) Phe2 Tyr4, read-out: Ki (nM) Ac-(06-34-18) Phe2 Tyr4
[5] = Table 24c, ratio of Ki to wild type
[6] = Table 24c, residue 8 modifications, read-out: Ki
[7] = Table 24a, residue 6 modification in the context of Ac-(06-34-18), read-out: Ki (nM) Ac-(06-34-18)

Observable in rat plasma, for days [1]: 2 days
Compound: CC(=O)N[C@H]1CSCc2cc3cc(c2)CSC[C@H](NC(=O)[C@H](CCCNC(=N)N)NC(=O)[C@H](C)NC(=O)[C@@H]2CCCN2C(=O)[C@H](Cc2cccc4ccccc24)NC(=O)[C@H](CO)NC1=O)C(=O)N[C@@H](CC(C)C)C(=O)N[C@@H](Cc1c[nH]cn1)C(=O)N[C@@H](CCC(N)=O)C(=O)N[C@@H](CC(=O)O)C(=O)N[C@@H](CC(C)C)C(=O)N[C@H](C(N)=O)CSC3 [Ac-(06-34-18) 1NAL2] (Ac-CS[1Nal]PARCLHQDLC-NH2; linker 1-7-13 via TBMB)

Observable in rat plasma, for days [1]: 2 days
Compound: CC(=O)N[C@H]1CSCc2cc3cc(c2)CSC[C@H](NC(=O)[C@H](CCCNC(=N)N)NC(=O)[C@H](C)NC(=O)[C@@H]2CCCN2C(=O)[C@H](Cc2ccc4ccccc4c2)NC(=O)[C@H](CO)NC1=O)C(=O)N[C@@H](CC(C)C)C(=O)N[C@@H](Cc1c[nH]cn1)C(=O)N[C@@H](CCC(N)=O)C(=O)N[C@@H](CC(=O)O)C(=O)N[C@@H](CC(C)C)C(=O)N[C@H](C(N)=O)CSC3 [Ac-(06-34-18) 2NAL2] (Ac-CS[2Nal]PARCLHQDLC-NH2; linker 1-7-13 via TBMB)

Ki (human plasma Kallikrein; [2]): 292 nM
F (Kivar/KiWT) (human plasma Kallikrein; [3]): 696
Compound: CC(=O)N[C@H]1CSCc2cc3cc(c2)CSC[C@H](NC(=O)[C@H](CCCNC(=N)N)NC(=O)[C@H](Cc2ccc(O)cc2)NC(=O)[C@@H]2CCCN2C(=O)[C@H](Cc2ccccc2)NC(=O)[C@H](CO)NC1=O)C(=O)N[C@@H](CC(C)C)C(=O)N[C@@H](Cc1cncn1C)C(=O)N[C@@H](CCC(N)=O)C(=O)N[C@@H](CC(=O)O)C(=O)N[C@@H](CC(C)C)C(=O)N[C@H](C(N)=O)CSC3 [Ac-(06-34-18) Phe2 Tyr4 His3Me7] (Ac-CSFPYRCL[His(π-Me)]QDLC-NH2; linker 1-7-13 via TBMB)

Ki (human plasma Kallikrein; [2]): 34 nM
F (Kivar/KiWT) (human plasma Kallikrein; [3]): 80
Compound: CC(=O)N[C@H]1CSCc2cc3cc(c2)CSC[C@H](NC(=O)[C@H](CCCNC(=N)N)NC(=O)[C@H](Cc2ccc(O)cc2)NC(=O)[C@@H]2CCCN2C(=O)[C@H](Cc2ccccc2)NC(=O)[C@H](CO)NC1=O)C(=O)N[C@@H](CC(C)C)C(=O)N[C@@H](Cc1cccs1)C(=O)N[C@@H](CCC(N)=O)C(=O)N[C@@H](CC(=O)O)C(=O)N[C@@H](CC(C)C)C(=O)N[C@H](C(N)=O)CSC3 [Ac-(06-34-18) Phe2 Tyr4 Thi7] (Ac-CSFPYRCL[2Thi]QDLC-NH2; linker 1-7-13 via TBMB)

F (Kivar/KiWT) (human plasma Kallikrein; [5]): 193
Compound: CC(=O)N[C@H]1CSCc2cc3cc(c2)CSC[C@H](NC(=O)[C@H](CCCNC(=N)N)NC(=O)[C@H](Cc2ccc(O)cc2)NC(=O)[C@@H]2CCCN2C(=O)[C@H](Cc2ccccc2)NC(=O)[C@H](CO)NC1=O)C(=O)N[C@@H](CC(C)C)C(=O)N[C@@H]([C@@H](C)O)C(=O)N[C@@H]([C@@H](C)O)C(=O)N[C@@H](CCC(=O)O)C(=O)N[C@@H](CC(C)C)C(=O)N[C@H](C(N)=O)CSC3 [Ac-(06-34-18) Phe2 Tyr4 Thr7 Thr8 Glu9] (Ac-CSFPYRCLTTELC-NH2; linker 1-7-13 via TBMB)

Ki (human plasma Kallikrein; [6]): 4.23 nM
F (Kivar/KiWT) (human plasma Kallikrein; [5]): 10
Compound: CC(=O)N[C@H]1CSCc2cc3cc(c2)CSC[C@H](NC(=O)[C@H](CCCNC(=N)N)NC(=O)[C@H](Cc2ccc(O)cc2)NC(=O)[C@@H]2CCCN2C(=O)[C@H](Cc2ccccc2)NC(=O)[C@H](CO)NC1=O)C(=O)N[C@@H](CC(C)C)C(=O)N[C@@H](Cc1c[nH]cn1)C(=O)N[C@@H]([C@@H](C)O)C(=O)N[C@@H](CC(=O)O)C(=O)N[C@@H](CC(C)C)C(=O)N[C@H](C(N)=O)CSC3 [Ac-(06-34-18) Phe2 Tyr4 Thr8] (Ac-CSFPYRCLHTDLC-NH2; linker 1-7-13 via TBMB)

Further lines, the compound ahead of its results:

Compound: CC[C@H](C)[C@@H]1NC(=O)[C@@H]2CSCc3cc(cc(c3)CSC[C@H](NC(C)=O)C(=O)N[C@@H](CO)C(=O)N[C@@H](Cc3ccccc3)C(=O)N3CCC[C@H]3C(=O)N[C@@H](Cc3ccc(O)cc3)C(=O)N[C@@H](CCCNC(=N)N)C(=O)N2)CSC[C@@H](C(N)=O)NC(=O)[C@H](CC(C)C)NC(=O)[C@H](CC(=O)O)NC(=O)[C@H](CCC(N)=O)NC(=O)[C@H](Cc2c[nH]cn2)NC1=O [Ac-(06-34-18) Phe2 Tyr4 Ile6] (Ac-CSFPYRCIHQDLC-NH2; linker 1-7-13 via TBMB)
Ki (human plasma Kallikrein; [4]): 1.46 nM

Compound: CC(=O)N[C@H]1CSCc2cc3cc(c2)CSC[C@H](NC(=O)[C@H](CCCNC(=N)N)NC(=O)[C@H](Cc2ccc(O)cc2)NC(=O)[C@@H]2CCCN2C(=O)[C@H](Cc2ccccc2)NC(=O)[C@H](CO)NC1=O)C(=O)N[C@@H](CC(C)C)C(=O)N(CCc1c[nH]cn1)CC(=O)N[C@@H](CCC(N)=O)C(=O)N[C@@H](CC(=O)O)C(=O)N[C@@H](CC(C)C)C(=O)N[C@H](C(N)=O)CSC3 [Ac-(06-34-18) Phe2 Tyr4 N-His7] (Ac-CSFPYRCL[Gly(N-CH2CH2-imidazol-4-yl)]QDLC-NH2; linker 1-7-13 via TBMB)
F (Kivar/KiWT) (human plasma Kallikrein; Table 25b, fold change of Ki of variant compared to WT): 519
Ki (human plasma Kallikrein; Table 25b, peptide backbone modifications in Loop2, human plasma kallikrein, read-out: Ki): 218 nM

Compound: CC(=O)N[C@H]1CSCc2cc3cc(c2)CSC[C@H](NC(=O)[C@H](CCCNC(=N)N)NC(=O)[C@H](Cc2ccc(O)cc2)NC(=O)[C@@H]2CCCN2C(=O)[C@H](Cc2ccccc2)NC(=O)[C@H](CO)NC1=O)C(=O)N[C@@H](Cc1ccccc1)C(=O)N[C@@H](Cc1c[nH]cn1)C(=O)N[C@@H](CCC(N)=O)C(=O)N[C@@H](CC(=O)O)C(=O)N[C@@H](CC(C)C)C(=O)N[C@H](C(N)=O)CSC3 [Ac-(06-34-18) Phe2 Tyr4 Phe6] (Ac-CSFPYRCFHQDLC-NH2; linker 1-7-13 via TBMB)
Ki (human plasma Kallikrein; [4]): 14.9 nM

Compound: CC(=O)N[C@H]1CSCc2cc3cc(c2)CSC[C@H](NC(=O)[C@H](CCCNC(=N)N)NC(=O)[C@H](Cc2ccc(O)cc2)NC(=O)[C@@H]2CCCN2C(=O)[C@H](Cc2ccccc2)NC(=O)[C@H](CO)NC1=O)C(=O)N[C@@H](CC(C)C)C(=O)N[C@@H](Cc1ccccc1)C(=O)N[C@@H](CCC(N)=O)C(=O)N[C@@H](CC(=O)O)C(=O)N[C@@H](CC(C)C)C(=O)N[C@H](C(N)=O)CSC3 [Ac-(06-34-18) Phe2 Tyr4 Phe7] (Ac-CSFPYRCLFQDLC-NH2; linker 1-7-13 via TBMB)
Ki (human plasma Kallikrein; [2]): 43 nM
F (Kivar/KiWT) (human plasma Kallikrein; [3]): 102

Compound: CC(=O)N[C@H]1CSCc2cc3cc(c2)CSC[C@H](NC(=O)[C@H](CCCNC(=N)N)NC(=O)[C@H](Cc2ccc(O)cc2)NC(=O)[C@@H]2CCCN2C(=O)[C@H](Cc2ccccc2)NC(=O)[C@H](CO)NC1=O)C(=O)N[C@@H](CC(C)C)C(=O)N[C@@H](Cc1c[nH]cn1)C(=O)N[C@@H](CCC(N)=O)CC(=O)N[C@@H](CC(=O)O)C(=O)N[C@@H](CC(C)C)C(=O)N[C@H](C(N)=O)CSC3 [Ac-(06-34-18) Phe2 Tyr4 bHGln8] (Ac-CSFPYRCLH[β3hQ]DLC-NH2; linker 1-7-13 via TBMB)
Ki (human plasma Kallikrein; [6]): 16.8 nM
F (Kivar/KiWT) (human plasma Kallikrein; [5]): 40

Compound: CC(=O)N[C@H]1CSCc2cc3cc(c2)CSC[C@H](NC(=O)[C@H](CCCNC(=N)N)NC(=O)[C@H](C)NC(=O)[C@@H]2CCCN2C(=O)[C@H](Cc2c[nH]c4ccccc24)NC(=O)[C@H](CO)NC1=O)C(=O)N[C@@H](c1ccccc1)C(=O)N[C@@H](Cc1c[nH]cn1)C(=O)N[C@@H](CCC(N)=O)C(=O)N[C@@H](CC(=O)O)C(=O)N[C@@H](CC(C)C)C(=O)N[C@H](C(N)=O)CSC3 [Ac-(06-34-18) Phg6] (Ac-CSWPARC[Phg]HQDLC-NH2; linker 1-7-13 via TBMB)
Ki (human plasma Kallikrein; [7]): 0.18 nM

Compound: CC(=O)N[C@H]1CSCc2cc3cc(c2)CSC[C@H](NC(=O)[C@H](CCCNC(=N)N)NC(=O)[C@H](C)NC(=O)[C@@H]2CCCN2C(=O)[C@H](Cc2c[nH]c4ccccc24)NC(=O)[C@H](CO)NC1=O)C(=O)N[C@@H](C(C)(C)C)C(=O)N[C@@H](Cc1c[nH]cn1)C(=O)N[C@@H](CCC(N)=O)C(=O)N[C@@H](CC(=O)O)C(=O)N[C@@H](CC(C)C)C(=O)N[C@H](C(N)=O)CSC3 [Ac-(06-34-18) tBuGly6] (Ac-CSWPARC[Tle]HQDLC-NH2; linker 1-7-13 via TBMB)
Ki (human plasma Kallikrein; [7]): 0.49 nM
